The subject of data set [1] is SRI-treatment refractory OCD. In words: Six week tramadol hydrochloride treatment of SRI-refractory OCD patients, assessed with Y-BOCS, HAM-D and CGI. The data set is classed as in vivo. As to the method: (§1) Exclusion criteria for the study included a life-time DSM-IV diagnosis of mania, psychotic disorder, alcohol or substance abuse or dependence, prior history of hypersensitivity to tramadol or any other opioid, a history of seizures, including childhood febrile seizures, and any clinically relevant abnormal laboratory results or clinically unstable medical conditions. […] The patients were not concurrently receiving behavioral therapy.
(§2) Patients were evaluated using the Yale-Brown Obsessive Compulsive Scale (Y-BOCS), the Hamilton Rating Scale for Depression (HAM-D) and the Clinical Global Impression Scale (CGI). Subsequent to screening, the individuals received a six week treatment with tramadol hydrochloride. The tramadol hydrochloride was initially administered at 50 mg four times a day for the first week. If there was less than a 20% drop in baseline Y-BOCS scores by the end of week one, the tramadol hydrochloride dose was advanced slowly over 1 to 2 weeks to a maximum of 400 mg per day in 3 to 5 divided doses. Weekly measurements with the Y-BOCS, HAM-D and CGI were used to assess responses. Y-BOCS and HAM-D values at the start and end of the trial were compared using the Wilcoxon signed-ranks test.
The mean ± standard deviation dose of tramadol hydrochloride for the six patients completing at least two weeks was 254±119 mg/day (divided into from 3 to 5 doses). The mean ± standard deviation of baseline and endpoint Y-BOCS, HAM-D and severity of illness CGI and global improvement CGI are set forth below in Table 1. […] The scores for the patient who dropped out in week 6 were carried forward from week 5.

A short description of data set [2]: Weight and appetite during the six week tramadol hydrochloride study. The data set is classed as in vivo, patients. The procedure:
as §1, §2
Weekly mean ± standard deviation of weight and tramadol doses for the patients are set forth below in Table 2, while weights and tramadol hydrochloride doses for individual patients are set forth in Table 3. For data analysis purposes, when an individual's weight was not available, the weight from the previous week was carried forward.

For data set [3], the system named is OCD. In words: Example 2: case of a person with OCD, Y-BOCS. Format: in vivo, patient. The procedure: The tramadol hydrochloride therapy was then supplemented with 20 mg per day of fluoxetine, and three weeks later the fluoxetine was increased to 40 mg daily.
Data set [4] can be described thus: Example 3: weight of a OCD patient during 11 months of tramadol hydrochloride. The data set is classed as in vivo. As to the method:
A OCD patient was treated with tramadol hydrochloride for a total of 11 months, during the last month of the study the patient was titrated off the tramadol hydrochloride. The only additional prescribed medication was alendronic acid ((4-amino-1-hydroxybutylidene)bisphosphonic acid) started at week 6 for osteoporosis unrelated to tramadol use. (The patient has a family history of osteoporosis and previous steroid use.) The patient's weight and tramadol hydrochloride doses are set forth in Table 4 below.

In data set [5] the test system is Tourette's syndrome. Description: Example 4: case of a patient with major depressant disorder and Tourette's syndrome, motor tics. The settings on record: 50 mg twice a day added to bupropion. Format: in vivo. The procedure:
A patient with a history of recurrent major depressant disorder was treated with extended release bupropion (1-(3-chlorophenyl)-2-[(1,1-dimethylethyl)amino]-1-[…]), at a total dose of 300 mg per day (200 mg in the morning and 100 mg in the evening). […] The patient also reported a history of purging. […] The patient was diagnosed as having major depressant disorder and Tourette's syndrome.
The bupropion was supplemented with 50 mg twice a day of tramadol. […] The patient estimated that the number of tics was reduced by about two-thirds after starting the tramadol. The patient's bupropion dose was increased to 400 mg per day (200 mg twice a day), while the tramadol dose was maintained at 50 mg twice a day. The patient was informed the tramadol dose could be increased to 50 mg four times a day if the number of tics increased.

The mark [6] stands for this setting: during tramadol hydrochloride treatment.

Counter-ions that a name gives are not always drawn. Bounds are passed on as bounds.

The values below come from patent US6387956B1, “Methods of treating obsessive-compulsive spectrum disorders” (University of Cincinnati, priority 1999, dated 2002).

For `COc1cccc(C2(O)CCCCC2CN(C)C)c1` (mixture of isomers) [tramadol hydrochloride, (±) cis-2-[(dimethylamino)methyl]-1(3-methoxyphenyl)cyclohexanolhydrochloride], the “withdrawal Y-BOCS score, average, after withdrawal” value in data set [1] (3 patients stopping tramadol hydrochloride without adding another agent, followed for two weeks) amounted to 19.7. In addition, the “withdrawal Y-BOCS score, average, at stopping” value in data set [1] (3 patients stopping tramadol hydrochloride without adding another agent, start of withdrawal) stood at 14.3. The “adverse event leading to discontinuation” value in data set [1] (another patient, during week 6) is “panic attack”; in data set [1] (one patient, during week 1), “nausea and exacerbation of trichotillomania”. The “Y-BOCS scores during treatment” value in data set [1] (setting [6]) is recorded as “decreased”. Also, the “change in HAM-D scores” value in data set [1] (setting [6]) is listed as “no significant change”. In data set [1] (endpoint of six week treatment, six patients, baseline 5.2 ± 0.8, 2=much improved, 3=minimally improved, 4=no change), the “Global Improvement CGI, mean ± SD, ENDPOINT” value stood at 2.3 ± 1.0. The “Severity of Illness CGI, mean ± SD, ENDPOINT” value in data set [1] (endpoint of six week treatment, six patients, baseline 5.3 ± 1.5, 4=moderately ill, 5=markedly ill, 6=severely ill) stood at 4.5 ± 1.2. Besides, the “HAM-D, mean ± SD, ENDPOINT” value in data set [1] (endpoint of six week treatment, six patients, baseline 27.7 ± 15.9) came to 28.8 ± 9.8. Moreover, in data set [1] (obsessions persisted in a muted form), the “urges or pressures to perform the compulsions, patient reported” value is listed as “diminished”. Further, the “decrease in Y-BOCS scores within the first week” value in data set [1] (three of the seven patients, rapid onset of response) is reported as “greater than 6 point”. Further, the “compulsive urges after the first dose” value in data set [1] (two individuals, first 50 mg dose) is reported as “alleviation”. In addition, the “Weight, mean ± SD” value was found to be 172.46 ± 29.9 lbs in data set [2] (Week 1, seven patients, baseline 173.36 ± 29.58); 170.39 ± 29.1 lbs in data set [2] (Week 2, seven patients); 170.5 ± 29.64 lbs in data set [2] (Week 3, seven patients); 169.46 ± 28.62 lbs in data set [2] (Week 4, seven patients); 169.1 ± 28 lbs in data set [2] (Week 5, seven patients); 167.5 ± 26.54 lbs in data set [2] (Week 6, seven patients). Besides, the “weight lost on average” value in data set [2] (seven patients, six week treatment) is recorded as 5.86 pounds. The “appetite, patient reported” value in data set [2] (six week treatment) is “decreased appetite”. In data set [3] (50 mg twice a day), the “time to reported decrease in obsessions and compulsions” value is not above 24 h. The compound also yielded a Y-BOCS score in data set [3] (after one week of treatment, score prior to treatment 26) of 19. For the same compound, the Weight came to 127.0 lbs in data set [4] (Month 3, 350 mg/day for 2 weeks, followed by 400 mg/day); 124.5 lbs in data set [4] (Month 4, 400 mg/day); 124.75 lbs in data set [4] (Month 5, 400 mg/day); 124.5 lbs in data set [4] (Month 6, 400 mg/day, alendronic acid started); 127.0 lbs in data set [4] (Month 7, 400 mg/day); 125.0 lbs in data set [4] (Month 8, 400 mg/day). The Weight in data set [4] (Month 9, 300 mg/day) was found to be 128.0 lbs; in data set [4] (Month 10, 150 mg/day), 127.5 lbs; in data set [4] (Month 11, 100 mg/day for 2 weeks, 50 mg/day for 1 week, then discontinued), 131.5 lbs; in data set [4] (Week 2, 300 mg/day, baseline 129.5) it was 128.25 lbs; in data set [4] (Week 3, 400 mg/day) it was 127.0 lbs; in data set [4] (Week 4, 400 mg/day) it was 127.25 lbs. Moreover, the Weight in data set [4] (Week 6, 300 mg/day) came to 126.0 lbs; in data set [4] (Week 7, 300 mg/day), 126.3 lbs; in data set [4] (Week 8, 300 mg/day), 126.0 lbs. Moreover, in data set [4] (after the tramadol hydrochloride treatment was discontinued), the “weight after treatment was discontinued” value is given as “regained”. Further, the “effect on weight during treatment” value in data set [4] (during the tramadol hydrochloride treatment) is “lost weight”.
On to `COc1cccc([C@]2(O)CCCC[C@H]2CN(C)C)c1` (racemic) [tramadol, (±)cis-2-[(dimethylamino)methyl]-1(3-methoxyphenyl) cyclohexanol], for which the side effects entry in data set [5] is “without any side effects”.
